Data as given in US20040143025A1, “Carbon monoxide generating compunds for treatment of vascular, inflammatory and immune disorders” (priority 2002, published 2004).

Legend:
C57BL/6 ApoE (−/−) mice = experiment: Carotid wire injury in atherogenic ApoE-/- mouse, neointimal formation; assay type: in vivo; conditions: day -1 to day 28
Description: The effects of CO generated though metabolic degradation of methylene chloride are investigated in an atherosclerotic mouse carotid intimal denudation model. Female C57BL/6 ApoE (−/−) mice (10-12 weeks old, n=12/group) are fed Western diet for 1 week prior to injury and 4 weeks after injury. On day 0 mice are anesthesized with ip injection of ketamine (80 mg/kg) & xylazine (5 mg/kg). The left carotid artery is isolated and two ligatures (6-O silk) are placed around the external carotid artery, ligatures are also placed around the common and internal carotid arteries. After the distal external carotid ligatures are tied, the carotid is incised with Vannas scissors proximal to the ligature. A curved flexible wire (0.35 mm/0.014 in diameter) is introduced into the external carotid and passed three times along the wall of the common carotid while being rotated. Upon removal of the wire the proximal carotid ligature is tied and the skin is reopposed with 6-O silk.
Methylene chloride (25, 100, 400 mg/kg/day) is administered intraperitoneally or orally starting on day-1 until day 28. A control group is treated with vehicle. On day 28 animals are sacrificed and after incision, the right and left common, external, and internal carotids are ligated. After sternotomy, common carotids are dissected further to the aortic arch. A 27-gauge needle is placed in the left ventricle and a systemic perfusion with phosphate buffered paraformaldehyde (100 mM, 4% wt/vol, pH 7.3) is performed at 100 mmHg via the left ventricular cannula. Subsequently, the common, internal and external carotid arteries are transected and removed. Specimens are dehydrated in ethanol and xylene, and embedded in paraffin. Tissue sections are stained and VSMC proliferation is assessed microscopically by histomorphometry. Methylene chloride therapy at 400, 100, and 25 mg/kg/day inhibits neointimal formation by 90%, 75% and 30% respectively.

allogeneic OLTs = experiment: In vivo detection of apoptosis in OLTs; design: species or system rat; conditions: day 10 post-transplant
Description: In vivo detection of apoptosis. A commercial in situ histochemical assay (Klenow-FragEL, Oncogene Research Products, Cambridge, Mass.) was performed to detect the DNA fragmentation characteristic of apoptosis in formalin-fixed paraffin-embedded tissue sections. In this assay, Kienow binds to exposed ends of DNA fragments generated in response to apoptotic signals and catalyzes the template-dependent addition of biotin-labeled and unlabeled deoxynucleotides. Biotinylated nucleotides are detected using a streptavidin-horse radish peroxidase (HRP) conjugate. Diaminobenzidine reacts with the labeled sample to generate an insoluble colored substrate at the site of DNA fragmentation. Counterstaining with methyl green aids in the morphological evaluation and characterization of normal and apoptotic cells. The results were scored semi-quantitatively by averaging the number of apoptotic cells per microscopic field at 200× magnification. Six fields were evaluated per tissue sample. All data are expressed as mean±SD.

TNF-α = experiment: LPS-induced serum TNF-α in mice (sandwich ELISA); assay type: in vivo, C57/BL6 mice
Description: To examine the effect of gaseous CO on the immune system, C57/BL6 mice (B6, Jackson Laboratory, Bar Harbor, Me.) were first exposed to 500 ppm CO in air (Praxair, Danbury, Conn.) for one hour in a sealed chamber before injection of lipopolysaccharide (LPS) (0.3 mg/kg, i.v., Sigma, St Louis, Mo.). After injection, they were exposed to another hour in the CO chamber. Blood samples were collected one hour after LPS injection (through the aortic artery) and the COHb level in whole blood was measured by a whole blood AVOXimeter 4000 (A-VOX Systems, San Antonio, Tex.). Serum samples were separated and were kept at −80° C. until analysis. Serum TNF-α was measured by sandwich ELISA (Biosource, Camarillo, Calif.).
To reveal the therapeutic potential of CO generators, methylene chloride (MC, Sigma, St. Louis, Mo.) was selected as a lead compound. Different concentrations of MC were prepared by using olive oil as a solvent. Mice were treated with MC at 5 mg/kg., 50 mg/kg, and 500 mg/kg, p.o., one hour before LPS administration.

iNOS = experiment: Western blot of liver samples, iNOS; design: species or system rat; conditions: 2 h reperfusion
Description: Western blots. Protein was extracted from liver samples with PBSTDS buffer (50 mM Tris, 150 mM NaCl, 0.1% SDS, 1% sodium deoxycholate, and 1% triton X-100, pH 7.2). Proteins (30 μg/sample) in SDS-loading buffer (50 mM Tris, pH 7.6, 10% glycerol, 1% SDS) were subjected to 12% SDS-polyacrylamide gel electrophoresis and transferred to nitrocellulose membrane (Bio-Rad, Hercules, Calif.). The gel was stained with coomassie blue to document equal protein loading. The membrane was blocked with 3% dry milk and 0.1% Tween 20 (USB, Cleveland, Ohio) in PBS and incubated with rabbit anti-rat HO-1 or iNOS polyclonal Abs (SangStat, Fremont, Calif.). Relative protein quantities were determined using a densitometer (Kodak Digital Science 1D Analysis Software, Rochester, N.Y.).

HO-1 = experiment: ELISA for HO-1 protein expression in liver; design: species or system rat; conditions: ZnPP = pretreatment then CO perfusion; CO = CO only
Description: ELISA for HO-1 protein expression. Livers were homogenized on ice in a Tris-HCl lysis buffer (pH 7.4) containing 0.5% Triton X-100 and protease inhibitors. Flat-bottom microtiter 96-well plates (Nunc) were coated with 7 μg/ml anti-HO-1 mAb (OSA-111, Stressgen, Canada) in PBS for 18 h at room temperature. Unbound Ab was removed by washing (wash buffer: 0.05% Tween 20 in 50 mM phosphate buffer, pH 7.5) and remaining binding sites were blocked by incubation with a 5% BSA/PBS solution (1 h). Recombinant HO-1 (SPP-730) and tissue homogenate were diluted in assay diluent (0.5% BSA/0.05% Tween 20/PBS) and incubated in anti-HO-1 mAb coated wells for 1 h at room temperature. Subsequently, plates were washed three times with wash buffer and incubated with rabbit anti-HO-1 polyclonal antibody (SPA-895, Stressgen; diluted 1:1000 in assay diluent) for 30 min at room temperature. Bound rabbit IgG was detected with a donkey anti-rabbit (gG-HRP conjugate (711-035-152, Jackson Research Laboratories; diluted 1:8000 in assay diluent). Unbound secondary Ab was removed by washing and bound HRP was detected using 1 mg/ml OPD in substrate buffer (0.1% H2O2, 0.1 M citric acid, 0.2 M Na2HPO4, pH 5.0). The color reaction was stopped with 1 M HCl and the optical density at 490 nm was measured.

SMILES: ClCCl [methylene chloride]
- inhibition of neointimal formation (C57BL/6 ApoE (−/−) mice; 25 mg/kg/day): 30%
- inhibition of neointimal formation (C57BL/6 ApoE (−/−) mice; 100 mg/kg/day): 75%
- inhibition of neointimal formation (C57BL/6 ApoE (−/−) mice; 400 mg/kg/day): 90%
- TUNEL+ cells/field in allogeneic OLTs (allogeneic OLTs): 4.5±2.3
- level of TNF-α (TNF-α; MC 5 mg/kg p.o. one hour before LPS): 3720 ± 1666 pg/mL
- level of TNF-α (TNF-α; MC 50 mg/kg p.o. one hour before LPS): 3124.2 ± 1147 pg/mL
- level of TNF-α (TNF-α; MC 500 mg/kg p.o. one hour before LPS): 2339 ± 770 pg/mL

SMILES: [C-]#[O+] [CO, carbon monoxide]
- iNOS expression (Western blot) (iNOS): no detectable bands
- serum TNF-α levels (TNF-α; LPS 0.3 mg/kg i.v., 500 ppm CO in air 1 h before and 1 h after LPS, blood 1 h after LPS): 3,347+1393 pg/ml
- HO-1 protein expression in liver samples (ELISA) (HO-1): 7.51±2.13 ng of HO-1/mg lysate
